Patent US20080045592A1, “Method of inhibiting growth and proliferation of listeria monocytogenes using levulinate” (Utah State University, priority 2006, published 2008)
Like-named read-outs stand apart in the source and are kept apart here.

Columns and labels:
[1] = system: 5 strain cocktail of L. monocytogenes; settings: for inhibiting growth of L. monocytogenes, compared with sodium lactate alone or sodium lactate combined with sodium diacetate: 2° C., comparators at 2%; for growth of L. monocytogenes: entire 12 weeks of storage at 2° C.
[2] = system: 5 strain cocktail of L. monocytogenes; settings: for inhibition of growth of L. monocytogenes, compared with sodium lactate alone or sodium lactate combined with sodium diacetate: 2° C., comparators at 2%; for growth of L. monocytogenes: entire 12 weeks of storage at 2° C.
[3] = system: pathogenic bacteria (including, but not limited to, Listeria monocytogene); settings: addition or application to any food, stored at 4 to 8° C. for up to 16 weeks
Experimental: Pathogen counts are determined at 0, 2, 4, 8, 12, and 16 weeks.

[4] = system: pathogenic bacteria (including, but not limited to, Listeria monocytogenes); settings: 0.5, 1.0, 2.0% applied at temperatures greater than 54° C. (68, 77° C.); comparators 2% at 54° C.
Experimental: Samples are vacuum packaged and stored at 4° C. for 12 hours, and pathogen counts are determined.

[5] = system: cocktail of 5 pathogenic strains of L. monocytogenes; settings: bologna slices surface contacted with 1 to 3% solutions, stored at 4° C. for 16 weeks
Excerpt: This experiment tests the residual anti-Listeria activity imparted by topical application of levulinate to ready-to-eat meat product. In this experiment, levulinic acid is topically applied to a ready-to-eat meat product, and residual anti-Listeria activity followed in a post-treatment challenge. Briefly, bologna slices are surface contacted (spray, wash, or dips) with solutions of 1 to 3% levulinic […] acid. The slices are inoculated with a cocktail of 5 pathogenic strains of L. monocytogenes. Samples are vacuum packaged and stored at 4° C. for 16 weeks. Pathogen counts are determined at 0, 2, 4, 8, 12 and 16 weeks.

[6] = system: pathogenic bacteria including, but not limited to, Listeria monocytogenes; settings: 2% applied at 54° C. to carcass tissue, stored at 4° C. for 12 hours
Experimental: This experiment tests the extent of decontamination achieved by topical application of levulinic acid to carcass meats as compared to lactic and acetic acids. Briefly, carcass tissues samples from beef, pork, lamb, and poultry (or any other species) are inoculated with pathogenic bacteria including, but not limited to, Listeria monocytogenes. Levulinic acid (2%), lactic acid (2%), and acetic acid (2%) are independently applied at 54° C. to individual meat samples by washing, dipping, or spraying. Samples are vacuum packaged and stored at 4° C. for 12 hours, and pathogen counts are determined.

[7] = system: pathogenic bacteria (including, but not limited to Listeria monocytogenes); settings: 2% applied at 54° C. to carcass tissues, stored 4 to 8° C. for 16 weeks
Experimental: This experiment tests the extent of residual anti-pathogenic activity of levulinic acid (2%) topically applied to carcasses by dipping, spraying, or washing as compared to lactic acid (2%) or acetic acid (2%). Briefly, levulinic acid, lactic acid and acetic acid are independently applied at 54° C. to samples of carcass tissues from beef, pork, lamb, and poultry (or any other species) by topical application. Samples are inoculated with pathogenic bacteria (including, but not limited to Listeria monocytogenes), vacuum packaged, and stored (4 to 8° C.) for 16 weeks. Pathogen counts are determined at 0, 2, 4, 8, 12, and 16 weeks.

Compound: CC(=O)CCC(=O)[O-].[Na+] [sodium levulinate]
- inhibiting growth of L. monocytogenes, compared with sodium lactate alone or sodium lactate combined with sodium diacetate ([1]; 2% in turkey product): more effective
- growth of L. monocytogenes ([1]; 2% in turkey product): completely inhibited growth
- inhibiting growth of L. monocytogenes, compared with sodium lactate alone or sodium lactate combined with sodium diacetate ([1]; 3% in turkey product): more effective
- growth of L. monocytogenes ([1]; 3% in turkey product): completely inhibited growth
- inhibition of growth of L. monocytogenes, compared with sodium lactate alone or sodium lactate combined with sodium diacetate ([2]; 1% in bologna): as inhibitory
- growth of L. monocytogenes ([2]; 1% in bologna): completely inhibited growth
- inhibition of growth of L. monocytogenes, compared with sodium lactate alone or sodium lactate combined with sodium diacetate ([2]; 2% in bologna): as inhibitory
- growth of L. monocytogenes ([2]; 2% in bologna): completely inhibited growth
- inhibition of growth of L. monocytogenes, compared with sodium lactate alone or sodium lactate combined with sodium diacetate ([2]; 3% in bologna): as inhibitory
- growth of L. monocytogenes ([2]; 3% in bologna): completely inhibited growth

Compound: CC(=O)CCC(=O)O [levulinic acid, 4-oxopentanoic acid]
- initial decontamination and residual activity against pathogenic bacteria [3]: significant initial decontamination and residual activity
- initial surface decontamination activity against pathogenic bacteria as compared to fixed concentrations of lactic acid or acetic acid at a fixed temperature [4]: significant initial surface decontamination activity
- proliferation of Listeria bacteria in treated meat samples [5]: significant decrease
- decontamination of pathogens as compared to lactic acid and acetic acid [6]: equal or greater decontamination
- residual anti-pathogenic activity as compared to lactic acid and acetic acid [7]: equal or greater residual anti-pathogenic activity

Compound: CC(=O)CCC(=O)O [levulinate]
- peak levels of growth of L. monocytogenes ([1]; 1% in turkey product, after 12 weeks of storage at 2° C.): greatly inhibited
- growth of L. monocytogenes compared to the control ([1]; 1% in turkey product, vacuum packaged, stored at 2° C., two trials averaged): delayed growth
